Here are results for one compound from patent publication US7547706B2, “1H-pyrimido[4,5-b]indole derivatives, their preparation and therapeutic use” (Sanofi-Aventis, priority 2005, dated 2009).

The structures appear in SMILES notation. pIC50: −log10 of the molar value. Marks after values point to notes of the source that are not given here.

Assay [1] deals with T1, peripheral benzodiazepine receptors (p or PBR sites) (Rattus norvegicus, UniProt P16257).
T1 construct: After decapitation, the kidney was removed and the tissue was homogenized; from tissue; host or cells: kidney membrane homogenate of male Sprague Dawley rats
In words: Binding of [3H]Ro5-4864 to peripheral benzodiazepine receptors in rat kidney membranes. Conditions: [3H]Ro5-4864 0.5 nM, 3 h at 0° C., read-out: IC50, concentration which inhibits 50% of the specific binding of [3H]Ro5-4864.

Assay [2] relates to motor neurons of the facial nucleus. In words: Survival of the motor neurons after sectioning the facial nerve in rats aged 4 days. The format is in vivo, rat. Particulars: via oral route, at 10 mg/kg; treated for 7 days; facial nerve lesion in 4 day old rats. How it is done: Test of Survival of the Motor Neurons after Sectioning the Facial Nerve in Rats Aged 4 Days
After lesion of the facial nerve in immature rats, the motor neurons of the facial nucleus underwent neuronal death by apoptosis. Neural survival was evaluated using histological methods and neuronal counting.
4 day old immature rats were anesthetized with pentobarbital (3 mg/kg by the i.p. route). The right facial nerve was exposed and sectioned, at its outlet from the stylomastoid foramen. After waking up, the young rats were returned to their mothers and treated for 7 days with one or two daily administrations, via oral or intraperitoneal route, at doses ranging from 1 to 10 mg/kg.
7 days after the lesion, the animals were decapitated and the brains frozen in isopentane at −40° C. The entire facial […] was cut with a cryostat into 10 μm sections. The motor neurons were colored with cresyl violet and counted using the Histo™ software (Biocom™).

Take `CN(C)C(=O)Cc1nc(-c2ccccc2)nc2c1c1ccc(Cl)cc1n2C` [Compound 19, 2-(7-chloro-9-methyl-2-phenyl-9H-pyrimido[4,5-b]indol-4-yl)-N,N-dimethylacetamide]: the pIC50 in assay [1] is 8.89. For the same compound, in assay [2], the “% increase of neuronal survival” value is reported as “+21* %”.
